Measured values from PubChem BioAssay (NCI).
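Dose response: 5 concentrations. Exposure: 48 h. Format: 96-well plates. Endpoint: linear interpolation; highest concentration if not reached. GI50 = concentration required for 50% inhibition of growth. TGI denotes the concentration required for complete inhibition of growth.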

Assays:
Test in all cases: NCI-60 cell line screen, 48 h
[1] = test system: SF-268 CNS
[2] = test system: OVCAR-3 ovarian
[3] = test system: SW-620 colon
[4] = test system: BT-549 breast
[5] = test system: HT29 colon
[6] = test system: SK-MEL-28 melanoma
[7] = test system: NCI-H522 lung
[8] = test system: T-47D breast
[9] = test system: UACC-257 melanoma
[10] = test system: HCC-2998 colon

With `Oc1cc(O)c2c(c1)OC(c1ccc(O)c(O)c1)C(O)C2c1c(O)cc(O)c2c1OC(c1ccc(O)c(O)c1)C(O)C2` (stereo not given) the TGI [1] was greater than 100 µM, the TGI [2] was greater than 100 µM and the TGI [3] was greater than 100 µM. The TGI [4] was greater than 100 µM, the TGI [5] was greater than 100 µM and the TGI [6] was greater than 100 µM. The TGI [7] was greater than 100 µM, the TGI [8] was greater than 100 µM and the TGI [9] was greater than 100 µM.
For `Cn1cc(-c2nc(-c3cn(C)c4ncccc34)cs2)c2ccccc21`, the GI50 [1] was 4.83 µM, the TGI [1] was 37.3 µM and the GI50 [2] was 0.414 µM. The TGI [2] was 1.71 µM, the GI50 [3] was 1.24 µM and the TGI [3] was greater than 100 µM. For the same compound, the GI50 [4] was 2.32 µM, the TGI [4] was 31 µM and the GI50 [6] was 2.09 µM. The TGI [6] was greater than 100 µM, the GI50 [7] was 0.402 µM and the TGI [7] was 11.9 µM. It also gave a GI50 [8] of 2.98 µM, a TGI [8] of 17 µM and a GI50 [9] of 3.61 µM. For the same compound, the TGI [9] was greater than 100 µM, the GI50 [10] was 2.05 µM and the TGI [10] was greater than 100 µM.
`N#CC(C#N)=C1CCC2C(=C(C#N)C#N)CCC12` (stereo not given) showed a TGI [1] greater than 100 µM, a TGI [2] greater than 100 µM and a TGI [3] greater than 100 µM. The TGI [5] was greater than 100 µM, the TGI [7] was greater than 100 µM and the TGI [9] was greater than 100 µM. For the same compound, the TGI [10] was greater than 100 µM.
With `Cc1ccc(NC(=O)CCC(=O)C2Cc3ccccc3C2=O)cc1C` (stereo not given) the TGI [1] was greater than 100 µM, the TGI [2] was greater than 100 µM and the TGI [3] was greater than 100 µM. It also gave a TGI [5] greater than 100 µM, a TGI [6] greater than 100 µM and a TGI [7] greater than 100 µM. For the same compound, the TGI [9] was greater than 100 µM and the TGI [10] was greater than 100 µM.
Compound `CC(C)(C)OC1=C(OC(C)(C)C)C(O)(c2ccc(Cl)cc2)C1=O` (stereo not given) has a TGI [1] greater than 100 µM, a TGI [2] greater than 100 µM and a TGI [3] greater than 100 µM. It also gave a TGI [5] greater than 100 µM, a TGI [6] greater than 100 µM and a TGI [10] greater than 100 µM.
Work on `CN(C)CCNC(=O)c1cccc2c1nc(-c1ccncc1)c1ccccc12` yielded a TGI [1] of 19.7 µM, a TGI [2] of 30.4 µM and a TGI [3] of 19.1 µM. For the same compound, the TGI [5] was 19.4 µM, the TGI [6] was 17.6 µM and the TGI [9] was 12.6 µM. For the same compound, the TGI [10] was 16.7 µM.
`CC(=O)[CH-]C(=O)c1ccccc1.CC(=O)[CH-]C(=O)c1ccccc1.CC(=O)[CH-]C(=O)c1ccccc1.[Br-].[Zr+4]` was tested, and the GI50 [1] was 56.7 µM, the TGI [1] was greater than 100 µM and the GI50 [2] was 48.1 µM. The TGI [2] was greater than 100 µM, the GI50 [3] was greater than 100 µM and the TGI [3] was greater than 100 µM. It also gave a GI50 [5] of 48.3 µM, a TGI [5] greater than 100 µM and a GI50 [6] of 55.3 µM. It also gave a TGI [6] greater than 100 µM, a GI50 [7] of 93.2 µM and a TGI [7] greater than 100 µM. The GI50 [9] was 48.2 µM and the TGI [9] was greater than 100 µM.
`C=CCC1C(=O)CC2(C)C(CC=C)C(=O)CC12C` (stereo not given) gave a TGI [2] greater than 100 µM, a TGI [3] greater than 100 µM and a TGI [5] greater than 100 µM. The TGI [6] was greater than 100 µM, the TGI [7] was greater than 100 µM and the TGI [9] was greater than 100 µM. The TGI [10] was greater than 100 µM.
Compound `Cc1ccc(/C(=C/C=C(C#N)C#N)Sc2nc3ccccc3s2)cc1` has a GI50 [1] of 5.81 µM, a TGI [1] of 22.1 µM and a GI50 [2] of 4.49 µM. It also gave a TGI [2] of 19 µM, a GI50 [3] of 2.42 µM and a TGI [3] of 5.73 µM. The GI50 [4] was 0.793 µM, the TGI [4] was 3.65 µM and the GI50 [6] was 5.14 µM. For the same compound, the TGI [6] was 23.9 µM, the GI50 [7] was 7.36 µM and the TGI [7] was 32.9 µM. It also gave a GI50 [8] of 5.2 µM, a TGI [8] of 35.7 µM and a GI50 [9] of 12.1 µM. It also gave a TGI [9] of 27.3 µM.
With `O=C(O)c1cc(Cl)cc(Cc2cc(Cl)cc(C(=O)O)c2O)c1O` the TGI [1] was greater than 100 µM, the TGI [2] was greater than 100 µM and the TGI [3] was greater than 100 µM. The TGI [4] was greater than 100 µM, the TGI [5] was greater than 100 µM and the TGI [6] was greater than 100 µM. The TGI [7] was greater than 100 µM and the TGI [8] was greater than 100 µM.
With `CCCCNCCCCCNc1cc(OC)cc2cccnc12` the GI50 [1] was greater than 100 µM, the TGI [1] was greater than 100 µM and the GI50 [2] was 19 µM. The TGI [2] was 45.5 µM, the GI50 [3] was 19.2 µM and the TGI [3] was 39.4 µM. The GI50 [4] was 14.5 µM, the TGI [4] was 28.8 µM and the GI50 [7] was 17.5 µM. For the same compound, the TGI [7] was 33.8 µM, the GI50 [9] was 16.1 µM and the TGI [9] was 32.2 µM. It also gave a GI50 [10] of 3.1 µM and a TGI [10] of 16.4 µM.
With `CC[P+]1(c2ccccc2)CCCCC1` the TGI [1] was greater than 100 µM, the TGI [2] was greater than 100 µM and the TGI [3] was greater than 100 µM. The TGI [5] was greater than 100 µM, the TGI [6] was greater than 100 µM and the TGI [9] was greater than 100 µM. The TGI [10] was greater than 100 µM.
For `CCOP(=O)(OCC)C(NC(c1ccccc1)c1ccccc1)c1ccc(C(C)C)cc1` (stereo not given), the GI50 [1] was 7.93 µM, the TGI [1] was 69.5 µM and the GI50 [2] was 1.87 µM. It also gave a TGI [2] of 6.15 µM, a GI50 [3] of 4.08 µM and a TGI [3] of 20.3 µM. For the same compound, the GI50 [4] was 6.8 µM, the TGI [4] was 28.9 µM and the GI50 [5] was 6.27 µM. For the same compound, the TGI [5] was 42.1 µM, the GI50 [6] was 11.9 µM and the TGI [6] was 52 µM. It also gave a GI50 [7] of 6.98 µM, a TGI [7] of 29.6 µM and a GI50 [8] of 6.65 µM. It also gave a TGI [8] of 41.3 µM, a GI50 [10] of 5.49 µM and a TGI [10] of 18.2 µM.
Compound `O=C1CCc2ccc(O)c(c2)Oc2ccc(cc2)[C@@H]2O[C@@H]2CO1` has a TGI [2] greater than 100 µM, a TGI [3] greater than 100 µM and a TGI [5] greater than 100 µM. The TGI [6] was greater than 100 µM, the TGI [9] was greater than 100 µM and the TGI [10] was greater than 100 µM.
`CCc1cccc(NC(=O)c2cc(/C=C/c3ccccc3)[nH]c(=S)n2)c1` showed a TGI [1] greater than 100 µM, a TGI [2] greater than 100 µM and a TGI [3] greater than 100 µM. The TGI [5] was greater than 100 µM, the TGI [6] was greater than 100 µM and the TGI [7] was greater than 100 µM. It also gave a TGI [9] greater than 100 µM and a TGI [10] greater than 100 µM.
`CSc1cc(C(C)(C)C)ccc1C(O)c1ccc(C(C)(C)C)cc1SC` was tested, and the TGI [1] was 27.1 µM, the TGI [2] was 24.9 µM and the TGI [3] was 23.9 µM. The TGI [5] was 19.6 µM, the TGI [6] was 39.3 µM and the TGI [7] was 21.9 µM. The TGI [9] was 25.5 µM and the TGI [10] was 32.1 µM.
In the case of `O=C(CC1Sc2ccccc2NC1=O)NNc1ccc(F)cc1` (stereo not given), the GI50 [1] is reported as 81 µM, the TGI [1] is reported as greater than 100 µM and the GI50 [2] is reported as greater than 100 µM. It also gave a TGI [2] greater than 100 µM, a GI50 [3] of 38.5 µM and a TGI [3] greater than 100 µM. For the same compound, the GI50 [4] was greater than 100 µM, the TGI [4] was greater than 100 µM and the GI50 [5] was greater than 100 µM. It also gave a TGI [5] greater than 100 µM, a GI50 [6] greater than 100 µM and a TGI [6] greater than 100 µM. For the same compound, the GI50 [7] was 9.39 µM, the TGI [7] was greater than 100 µM and the GI50 [8] was 14.6 µM. It also gave a TGI [8] greater than 100 µM, a GI50 [10] of 30.9 µM and a TGI [10] greater than 100 µM.
`Oc1ccc(/C=N/NC(=S)Nc2cccnc2)nc1` showed a TGI [1] greater than 100 µM, a TGI [2] greater than 100 µM and a TGI [3] greater than 100 µM. The TGI [5] was greater than 100 µM, the TGI [6] was greater than 100 µM and the TGI [7] was 21.7 µM. For the same compound, the TGI [8] was greater than 100 µM, the TGI [9] was 76.9 µM and the TGI [10] was greater than 100 µM.
`CCc1ccccc1NC(=O)C(=O)C(C#N)c1c(Cl)cccc1Cl` (stereo not given) was tested, and the TGI [1] was greater than 100 µM, the TGI [2] was greater than 100 µM and the TGI [3] was greater than 100 µM. It also gave a TGI [5] greater than 100 µM, a TGI [6] greater than 100 µM and a TGI [7] greater than 100 µM. For the same compound, the TGI [9] was greater than 100 µM.
`O=C(O)CCSC(=O)Nc1ccccc1` was tested, and the TGI [1] was greater than 100 µM, the TGI [2] was greater than 100 µM and the TGI [3] was greater than 100 µM. The TGI [5] was greater than 100 µM, the TGI [6] was greater than 100 µM and the TGI [9] was greater than 100 µM. For the same compound, the TGI [10] was greater than 100 µM.
`CCOC(=O)c1ccc(NC(=O)c2cccc(NC3=C(Cl)C(=O)N(Cc4ccccc4)C3=O)c2)cc1` was tested, and the GI50 [1] was 42.3 µM, the TGI [1] was greater than 100 µM and the GI50 [2] was greater than 100 µM. The TGI [2] was greater than 100 µM, the GI50 [3] was greater than 100 µM and the TGI [3] was greater than 100 µM. It also gave a GI50 [4] greater than 100 µM, a TGI [4] greater than 100 µM and a GI50 [5] greater than 100 µM. The TGI [5] was greater than 100 µM, the GI50 [6] was greater than 100 µM and the TGI [6] was greater than 100 µM. It also gave a GI50 [7] of 62.9 µM, a TGI [7] greater than 100 µM and a GI50 [8] greater than 100 µM. It also gave a TGI [8] greater than 100 µM, a GI50 [9] greater than 100 µM and a TGI [9] greater than 100 µM.
